The target of the test is T1, OmTRPV1 (Oncorhynchus masou, UniProt Z9PIN9CDR2).
T1 construct: cDNA cloned from spinal cord into pOX(+) via EcoRI/NotI; forward primer starts at ATG, reverse primer with stop codon; cRNA-injected Xenopus laevis oocytes; S487 and V525 correspond to mammalian S512 and T550
T1 sequence (Z9PIN9CDR2 1-804): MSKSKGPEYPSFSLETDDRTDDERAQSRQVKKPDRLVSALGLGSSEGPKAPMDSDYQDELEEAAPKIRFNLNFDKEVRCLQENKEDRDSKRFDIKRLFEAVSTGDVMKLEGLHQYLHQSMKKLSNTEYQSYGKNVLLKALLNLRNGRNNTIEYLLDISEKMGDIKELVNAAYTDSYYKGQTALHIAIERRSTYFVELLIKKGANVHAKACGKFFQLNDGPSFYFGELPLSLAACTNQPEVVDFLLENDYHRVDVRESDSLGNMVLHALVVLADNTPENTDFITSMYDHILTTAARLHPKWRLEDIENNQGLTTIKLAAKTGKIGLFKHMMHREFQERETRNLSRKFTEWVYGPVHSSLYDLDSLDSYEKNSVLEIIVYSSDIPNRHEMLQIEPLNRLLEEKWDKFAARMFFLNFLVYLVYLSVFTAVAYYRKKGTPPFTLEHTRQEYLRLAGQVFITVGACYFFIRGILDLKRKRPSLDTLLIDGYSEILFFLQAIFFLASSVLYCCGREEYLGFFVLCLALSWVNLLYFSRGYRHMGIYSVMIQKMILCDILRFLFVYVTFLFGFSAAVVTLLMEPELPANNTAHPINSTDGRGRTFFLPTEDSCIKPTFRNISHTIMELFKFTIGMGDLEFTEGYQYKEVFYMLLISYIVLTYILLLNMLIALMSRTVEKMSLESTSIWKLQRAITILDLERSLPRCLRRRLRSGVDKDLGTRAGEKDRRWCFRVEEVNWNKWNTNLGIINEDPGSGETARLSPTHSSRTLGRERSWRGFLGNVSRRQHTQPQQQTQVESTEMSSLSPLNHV
Briefly: two-electrode voltage-clamp, Xenopus laevis oocytes. Type of test: cell-based. For orientation: In two-electrode clamp one electrode senses voltage and the other passes current.

In general, EC50 refers to the concentration needed to bring the measured effect to its halfway point. The low end stands for greater potency, the high end for weaker potency. For the compound `COc1cc(CNC(=O)CCCC/C=C/C(C)C)ccc1O` [capsaicin], the EC50 was 10.4 µM.

The values above are taken from paper PMC9309644, “Functional analysis of thermo-sensitive TRPV1 in an aquatic vertebrate, masu salmon (Oncorhynchus masou ishikawae)” (Biochemistry and Biophysics Reports, 2022).
